Literature values as cited in patent US20040197404A1, “Extended release oral dosage form” (priority 2001, published 2004).

Conditions: in vivo

For `NC(=O)c1ccc(F)c2c1C[C@@H](N(C1CCC1)C1CCC1)CO2.O.O=C(O)C(O)C(O)C(=O)O` [(R)-3-N,N-dicyclobutylamino-8-fluoro-3,4-dihydro-2H-1-benzopyran-5-carboxamide hydrogen (2R,3R)-tartrate monohydrate], the “plasma elimination half-life, t1/2” value is given as 1.5 h.
